IC50, EC50 and CC50 data for twelve compounds are collected here from US11952365B2, “Anti-viral compounds” (Aligos Therapeutics, Inc., priority 2020, dated 2024).

Where two headings read alike, the source gives them in different places.

The target in one data set is HRV3C (Human rhinovirus 14, UniProt P03303). Description: HRV3C protease assay (duplex, SAMDI-MS). It is filed as biochemical, HRV. Particulars: 30 mins preincubation. In short, it runs like this: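 Steps: enzymes (HRV3C plus 3CLpro) and compound preincubated 30 min; two peptide substrates added; 30 min reaction at ambient temperature; formic acid quench; SAMDI capture and reflector-positive TOF analysis. Product quantified against internal standard peptides. IC50 by four-parameter equation.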

In data set [1] the test system is human beta-coronavirus OC43. In words: microbe, parasite or virus in culture. It is filed as cell-based. Particulars: Betacoronavirus 1, OC43, HeLa, 144 h, OC43 in HeLa cells, 6 days at 33° C., read-out: EC50.
A short description of data set [2]: Cytotoxicity plates without OC43 virus (cell-titer-glo). It is filed as cell-based, human. Particulars: human; HeLa cells without OC43 virus, class symbols. In short, it runs like this: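 HeLa cells seeded overnight, then treated with serially diluted compounds in 2% FBS EMEM, uninfected, in parallel with the OC43 antiviral plates. Incubated 6 days at 33 °C; viability read by CellTiter-Glo luminescence.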

The test system of data set [3] is SARS-CoV-2-GHB-03021/2020. In words: SARS-CoV-2 Infection Model in Huh7 Cells. It is filed as cell-based. Particulars: Severe acute respiratory syndrome coronavirus 2, Huh-7, 96 h, SARS-CoV-2, day 4 p.i., MTS.
In data set [4] the test system is SARS-CoV-2-GHB-03021/2020. In words: microbe, parasite or virus in culture. It is filed as cell-based.
In the next data set the target is T1, human cathepsin L (Homo sapiens, UniProt P07711).
T1 construct: purchased R&D Systems
Description: cathepsin L assay. It is filed as biochemical. Particulars: 10 pM human cathepsin L, Z-FR-AMC 2 μM, class symbols. A digest of the protocol:
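Human cathepsin L at 10 pM was preincubated 30 min with compound, then reaction started with Z-FR-AMC (2 μM final). Fluorescence (355/460 nm) read every 2 min for 30 min; IC50 from four-parameter curve fit.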

The nature of data set [5]: in vitro. Particulars: human.
A short description of data set [6]: in vitro. Particulars: African green monkey, VeroE6 + CP (CC50).
The next data set has as its target 3CLpro (Severe acute respiratory syndrome coronavirus 2, UniProt P0DTD1). In words: SARS-CoV-2 3CLpro protease assay (duplex, SAMDI-MS). It is filed as biochemical. Particulars: 30 mins preincubation, class symbols. Set-up: For the duplex assay, 3CLpro and HRV3C was added.
[7] abbreviates: HRV3C, class symbols, read-out: HRV IC50.
Setting [8] is: Severe acute respiratory syndrome coronavirus 2, Vero C1008, 96 h; read-out: VeroE6 + CP (EC50).
[9] abbreviates: Vero E6-eGFP cells with CP-100356, absence of virus, MTS, numeric bounds.
[10] abbreviates: 3CLpro, read-out: SARS-Cov-2 IC50.
Where [11] appears, read: HRV3C, bound, read-out: HRV IC50.

As usually defined, the IC50 is the point on the concentration scale where inhibition reaches its midpoint. Usually EC50 stands for the concentration at which the effect is half-maximal.

Take `COc1cccc2[nH]c(C(=O)N3C[C@]4(C[C@H]3C(=O)N[C@@H](C[C@@H]3CCCNC3=O)C(=O)CO)CC4(F)F)cc12` [Compound 47, (3S,6S)-1,1-difluoro-N-[(2S)-4-hydroxy-3-oxo-1-[(3S)-2-oxopiperidin-3-yl]butan-2-yl]-5-(4-methoxy-1H-indole-2-carbonyl)-5-azaspiro[2.4]heptane-6-carboxamide]: the IC50 is 2 to 20 µM at HRV3C (setting [7]), ≥ 10 µM at human cathepsin L and 0.02 to 0.2 µM on 3CLpro (setting [10]). For the same compound, the EC50 in [1] (class symbols) lay in the range of 0.1 to 1 µM; in [3] (class symbols), 1 to 10 µM; in [4] (setting [8]), 1 to 10 µM. In addition, the CC50 at 6 days in data set [2] was > 10 µM. Moreover, the CC50 in the data set “in vitro [5]” and in the data set “in vitro [6]” (setting [9]) was > 100 µM each time.
Take `COc1cccc2[nH]c(C(=O)N3C[C@@H]4CCC[C@@H]4[C@H]3C(=O)N[C@H](C=O)CC3CCNS3(=O)=O)cc12` (stereo partly drawn) [Compound 142, (1S,3aR,6aS)—N-((2S)-1-(1,1-dioxidoisothiazolidin-5-yl)-3-oxopropan-2-yl)-2-(4-methoxy-1H-indole-2-carbonyl)octahydrocyclopenta[c]pyrrole-1-carboxamide]: the IC50 against HRV3C (HRV IC50, HRV3C, bound) was > 10 µM; on human cathepsin L it was ≥ 10 µM; at 3CLpro (setting [10]) it was 0.2 to 2 µM. The EC50 in data set [1] (bound) was > 10 µM; in data set [3] (numeric bounds) it was > 10 µM; in [4] (setting [8]), > 50 µM. Further, the CC50 at 6 days in data set [2] is > 10 µM. The CC50 was > 10 µM in “in vitro [5]” and > 50 µM in the data set “in vitro [6]” (setting [9]).
For the compound `COc1cccc2[nH]c(C(=O)N3CC4(CC4)C[C@H]3C(=O)N[C@@H](C[C@@H]3CCNC3=O)C(=O)CO)cc12` [Compound 31, (6S)—N-[(2S)-4-hydroxy-3-oxo-1-[(3S)-2-oxopyrrolidin-3-yl]butan-2-yl]-5-(4-methoxy-1H-indole-2-carbonyl)-5-azaspiro[2.4]heptane-6-carboxamide], the results for the IC50 on HRV3C (setting [7]), against human cathepsin L and on 3CLpro (setting [10]) were 20 to 100 µM, ≥ 10 µM and < 0.02 µM, respectively. Moreover, the concentration for a half-maximal effect (EC50) lay within 0.1 to 1 µM in data set [1] (class symbols), 10 to 100 µM in [3] (class symbols) and 1 to 10 µM in data set [4] (setting [8]). Further, the CC50 at 6 days in [2] is > 10 µM. Also, the CC50 in “in vitro [5]” and in the data set “in vitro [6]” (setting [9]) was > 100 µM in each case.
`O=C1NCC[C@H]1C[C@H](NC(=O)[C@@H]1[C@H]2CCC[C@H]2CN1C(=O)c1cc2c(Cl)cc(C(F)(F)F)cc2[nH]1)C(=O)CO` [Compound 161, (1S,3aR,6aS)-2-[4-chloro-6-(trifluoromethyl)-1H-indole-2-carbonyl]-N-[(2S)-4-hydroxy-3-oxo-1-[(3S)-2-oxopyrrolidin-3-yl]butan-2-yl]-hexahydro-1H-cyclopenta[c]pyrrole-1-carboxamide]: the IC50 is > 10 µM at HRV3C (setting [11]), ≥ 10 µM against human cathepsin L and 0.02 to 0.2 µM on 3CLpro (setting [10]). Also, the EC50 in data set [1] (class symbols) is < 0.1 µM; in data set [3] (class symbols), < 1 µM; in data set [4] (setting [8]), 1 to 10 µM. Also, in data set [2], the CC50 at 6 days is > 10 µM. The CC50 in “in vitro [5]” is > 10 µM; in the data set “in vitro [6]” (setting [9]), > 50 µM.
For the compound `COc1ccc(Br)c2[nH]c(C(=O)N3C[C@@H]4CCC[C@@H]4[C@H]3C(=O)N[C@@H](C[C@@H]3CCNC3=O)C(=O)CO)cc12` [Compound 124, (1S,3aR,6aS)-2-(7-bromo-4-methoxy-1H-indole-2-carbonyl)-N-[(2S)-4-hydroxy-3-oxo-1-[(3S)-2-oxopyrrolidin-3-yl]butan-2-yl]-hexahydro-1H-cyclopenta[c]pyrrole-1-carboxamide], the figures for the IC50 on HRV3C (setting [7]), at human cathepsin L and at 3CLpro (setting [10]) were 2 to 20 µM, ≥ 10 µM and < 0.02 µM, respectively. The EC50 in [1] (class symbols) was 0.1 to 1 µM; in data set [3] (class symbols) it was < 1 µM; in data set [4] (setting [8]), < 1 µM. Further, the CC50 at 6 days in data set [2] was > 10 µM. For the same compound, the CC50 in the data set “in vitro [5]” and in “in vitro [6]” (setting [9]) was > 50 µM each time.
On to `CC(C)NC(=O)C(=O)C(C[C@@H]1CCCNC1=O)NC(=O)[C@@H]1[C@H]2CCC[C@H]2CN1C(=O)c1cc2ccccc2[nH]1` (stereo partly drawn) [Compound 18, (1S,3aR,6aS)-2-(1H-indole-2-carbonyl)-N-(4-(isopropylamino)-3,4-dioxo-1-((S)-2-oxopiperidin-3-yl)butan-2-yl)octahydrocyclopenta[c]pyrrole-1-carboxamide], for which the results for the IC50 on HRV3C (setting [7]), at human cathepsin L and on 3CLpro (setting [10]) were 0.2 to 2 µM, ≥ 10 µM and 0.02 to 0.2 µM, respectively. The results for the EC50 in data set [1] (class symbols), in [3] (class symbols) and in data set [4] (setting [8]) were 0.1 to 1 µM, 1 to 10 µM and 1 to 10 µM, respectively. Also, the CC50 at 6 days in data set [2] is > 10 µM. Moreover, the CC50 in the data set “in vitro [5]” and in “in vitro [6]” (setting [9]) was > 100 µM each time.
For the compound `COc1cccc2[nH]c(C(=O)N3CCc4ccccc4[C@H]3C(=O)N[C@@H](C[C@@H]3CCNC3=O)C(=O)CO)cc12` [Compound 106], the half-maximal inhibitory concentration (IC50) at HRV3C (setting [7]) was 2 to 20 µM; on human cathepsin L it was ≥ 10 µM; on 3CLpro (setting [10]), 0.2 to 2 µM. In addition, the EC50 in data set [1] (class symbols) is 1 to 10 µM; in data set [3] (class symbols), 10 to 100 µM; in [4] (setting [8]), 10 to 100 µM. Moreover, in data set [2], the CC50 at 6 days was > 10 µM. Moreover, the CC50 in “in vitro [5]” is > 10 µM; in “in vitro [6]” (setting [9]), > 50 µM.
For `O=C1NCC[C@H]1C[C@H](NC(=O)[C@@H]1[C@H]2CCC[C@H]2CN1C(=O)c1ccc(-c2ccccc2)[nH]1)C(=O)CO` [Compound 144, (1S,3aR,6aS)—N-[(2S)-4-hydroxy-3-oxo-1-[(3S)-2-oxopyrrolidin-3-yl]butan-2-yl]-2-(5-phenyl-1H-pyrrole-2-carbonyl)-hexahydro-1H-cyclopenta[c]pyrrole-1-carboxamide], the figures for the IC50 on HRV3C (setting [7]), on human cathepsin L and on 3CLpro (setting [10]) were 2 to 20 µM, ≥ 10 µM and 0.02 to 0.2 µM, respectively. Also, the concentration for a half-maximal effect (EC50) in data set [1] (class symbols) was 0.1 to 1 µM; in [3] (class symbols), 1 to 10 µM; in [4] (setting [8]) it was < 1 µM. The CC50 at 6 days in data set [2] is > 10 µM. For the same compound, the figures for the CC50 in “in vitro [5]” and in “in vitro [6]” (setting [9]) were > 10 µM and > 50 µM, respectively.
`CS(=O)(=O)c1cccc2[nH]c(C(=O)N3C[C@@H]4CCC[C@@H]4[C@H]3C(=O)N[C@@H](C[C@@H]3CCNC3=O)C(=O)CO)cc12` [Compound 150, (1S,3aR,6aS)—N-[(2S)-4-hydroxy-3-oxo-1-[(3S)-2-oxopyrrolidin-3-yl]butan-2-yl]-2-(4-methanesulfonyl-1H-indole-2-carbonyl)-hexahydro-1H-cyclopenta[c]pyrrole-1-carboxamide]: the half-maximal effective concentration (EC50) in data set [1] (bound) is > 10 µM; in [3] (numeric bounds), > 50 µM; in data set [4] (Severe acute respiratory syndrome coronavirus 2, Vero C1008, 96 h, read-out: VeroE6 + CP (EC50)) it was > 50 µM. The CC50 at 6 days in [2] is > 10 µM. The 50% inhibitory concentration (IC50) is ≥ 10 µM against human cathepsin L and 0.2 to 2 µM on 3CLpro (SARS-Cov-2 IC50, 3CLpro). Further, the CC50 in the data set “in vitro [5]” and in “in vitro [6]” was > 50 µM throughout.
For `COc1cccc2[nH]c(C(=O)N3C[C@@H]4CCC[C@@H]4[C@H]3C(=O)N[C@@H](C[C@@H]3CCCNC3=O)C(=O)CO)cc12` [Compound 41, (1S,3aR,6aS)—N-[(2S)-4-hydroxy-3-oxo-1-[(3S)-2-oxopiperidin-3-yl]butan-2-yl]-2-(4-methoxy-1H-indole-2-carbonyl)-hexahydro-1H-cyclopenta[c]pyrrole-1-carboxamide], the values for the IC50 at HRV3C (setting [11]) and at human cathepsin L were > 10 µM and ≥ 10 µM, respectively. The EC50 in [1] (class symbols) is < 0.1 µM; in data set [3] (class symbols), 1 to 10 µM; in [4] (setting [8]) it was 1 to 10 µM. Moreover, in data set [2], the CC50 at 6 days was > 10 µM. Further, the CC50 in the data set “in vitro [5]” and in “in vitro [6]” (setting [9]) was > 100 µM throughout.
On to `O=C(NC1CC1)C(=O)[C@H](C[C@@H]1CCNC1=O)NC(=O)[C@@H]1CC2(CCN1C(=O)c1cc3ccccc3o1)CC2` [Compound 181], for which the figures for the IC50 at HRV3C (setting [7]), against human cathepsin L and on 3CLpro (setting [10]) were 0.2 to 2 µM, 1 to 10 µM and 0.02 to 0.2 µM, respectively. In addition, the EC50 in data set [3] (class symbols) and in data set [4] (setting [8]) was 1 to 10 µM each time. Also, the results for the CC50 in “in vitro [5]” and in the data set “in vitro [6]” (setting [9]) were > 10 µM and > 50 µM, respectively.
`O=C(NCCCC(F)(F)F)C(=O)[C@H](C[C@@H]1CCNC1=O)NC(=O)[C@@H]1[C@H]2CCC[C@H]2CN1C(=O)c1cc2c(Cl)cc(Cl)cc2[nH]1` [Compound 182]: the IC50 at HRV3C (setting [11]) is > 10 µM; against human cathepsin L, ≥ 10 µM; at 3CLpro (setting [10]) it was 0.2 to 2 µM. In addition, the EC50 was > 10 µM in data set [3] (numeric bounds) and 1 to 10 µM in [4] (setting [8]). In addition, the CC50 in the data set “in vitro [5]” was 1 to 10 µM; in “in vitro [6]” (Vero E6-eGFP cells with CP-100356, absence of virus, MTS, class symbols), > 10 µM.
